Holding throughout (type): cell-based, rat
The test system of assay [1] is RNVCs. Kind of assay: Autophagosome formation after GFP-LC3 plasmid transfection (fluorescence microscopy). As to conditions: GFP-LC3 transfected RNVCs. How it is done:
FIG. 4D: after transfection of the plasmid GFP-LC3, the fluorescent green GFP-LC3 spots were visualized by fluorescence microscopy and quantified with ImageJ to verify autophagosome formation. Data are presented as mean±SEM with single-factor ANOVA, and multiple Sidak comparisons. ***, p<0.001 with respect to 0.01% DMSO.
On day 0, 4×10^5 neonatal cardiomyocytes were plated overnight in laminin-coated 35 mm culture dishes (10 μg/ml). On day 1, the cells were transfected with 1 μg of GFP-LC3 plasmid using the transfection reagent Lipofectamine® 2000 (1 μg of GFP-LC3 corresponds to 2.5 μl of transfection reagent), for 48 h, then the green fluorescence was detected with a Leica confocal microscope (SP5). The analyses were carried out with the ImageJ program (Wayne Rasband, National Institutes of Health, USA).
Next, the hypothesis that the compounds could protect cardiac cells by activating autophagy, a catabolic process conserved in evolution that involves the degradation of damaged cytoplasmic components, was formulated. […] Then, the cells were treated with the hits and with H2O2 for 2 hours and their survival was analyzed 4 hours later by measuring LDH release (FIGS. 4B, 4C). […] In order to confirm the induction of autophagy by another approach, the RNVCs were transfected with a GFP-LC3 plasmid and the formation of the autophagosome was monitored 24 hours later. […]

The subject of assay [2] is RNVCs. Kind of assay: Mitochondrial ROS production with MitoSOX fluorescent probe. The settings on record: 1 μM, 6 h. How it is done: FIG. 12: The RNVCs were treated with 0.1% DMSO, 3 μM rapamycin, 1 μM digitoxigenin, 1 μM digoxin, 1 μM minaprin, 1 μM VP331, 1 μM LOPA87, 10 μM SG6163F for 6 h, then the ROS production was stained with the MitoSOX fluorescent probe.
The RNVCs were treated with 0.01% DMSO, 3 μM rapamycin, […], 1 μM digoxin, 1 μM minaprine, 1 μM VP331, 1 μM LOPA87, 10 μM SG6163F in a serum-free cell culture medium for 6 hours. The contents (50 μg) of a MitoSOX™ mitochondrial superoxide indicator vial (ThermoFisher, M36008) were dissolved in 13 μl dimethyl sulfoxide (DMSO) to prepare a 5 mM MitoSOX™ reagent stock solution. Next, the 5 mM MitoSOX™ reagent stock solution in PBS was diluted to prepare a 5 μM working solution of MitoSOX™ reagent. After treatment, the cells were rinsed twice with hot PBS and then incubated with a MitoSOX reagent working solution for 10 minutes at 37° C. The cells were gently rinsed three times with hot PBS. Red fluorescence was detected with a Leica confocal microscope. Nuclear fluorescence was suppressed and mitochondrial fluorescence intensity was measured using ImageJ software.
ROSs are produced or accumulated as a by-product of mitochondrial activity metabolism. Thus, the ROSs may be a consequence of mitochondrial function or may reflect a defect in the mitochondrial antioxidant system.

Another assay relates to H9C2 cells. Nature of the assay: Exogenous fatty acid oxidation (XF palmitate-BSA FAO substrate with mito stress test). The settings on record: fatty acids as substrate. How it is done:
FIG. 8C: the oxidation of the exogenous fatty acids was measured simultaneously using the XF palmitate-BSA FAO substrate kit with the mito stress test on XF cells. Before starting the test, 30 μL of XF palmitate-BSA CAM or BSA control substrate were added to the appropriate wells.
The XFe96 extracellular flow analyzer (Seahorse Biosciences, North Billerica, MA, USA) was used to measure the bioenergetic function of H9C2 cardiomyocytes. The H9C2 cells were seeded at 20 000 cells per well in XF96 cell culture microplates; all the pretreatments were carried out with serum-free cell culture medium. The Agilent Seahorse XF glycolysis stress test was performed to measure glycolytic function in the H9C2 cells; the extracellular acidification rate (ECAR) was measured sequentially by 3 injections, 10 mM glucose, 2 μM oligomycin and 50 mM 2-deoxy-D-glucose (2-DG). The Agilent Seahorse XF Cell Mito stress test measured key parameters of mitochondrial function by directly measuring the oxygen consumption rate (OCR) of the H9C2 cells. […] The oxidation of the exogenous fatty acids was measured simultaneously using the XF palmitate-BSA FAO substrate kit with the mitochondrial stress test on XF cells. […]
Next, the energy metabolism was analyzed in real time using the Seahorse technology in H9C2 cells.

`O=C1NC(c2ccccc2)=N/C1=C\c1cc2ccccc2c2ccccc12` [SG6163F]: in the assay on RNVCs [1], the formation of autophagosomes entry is on record as “capable of causing the formation of autophagosomes”.

For the compound `C[C@]12CC[C@H](O)C[C@H]1CC[C@@H]1[C@@H]2CC[C@]2(C)[C@@H](C3=CC(=O)OC3)CC[C@]12O` [digitoxigenin], the “local level of mitochondrial superoxide anion” value with RNVCs [2] is recorded as “induced an elevation”.

For `C[C@H]1O[C@@H](O[C@H]2[C@@H](O)C[C@H](O[C@H]3[C@@H](O)CC(O[C@H]4CC[C@@]5(C)[C@H](CC[C@@H]6[C@@H]5C[C@@H](O)[C@]5(C)[C@@H](C7=CC(=O)OC7)CC[C@]65O)C4)O[C@@H]3C)O[C@@H]2C)C[C@H](O)[C@@H]1O` (stereo partly drawn) [digoxin], in the assay on H9C2 cells, the oxidative phosphorylation entry is “improved oxidative phosphorylation”.

(Values after patent US20240226066A1, “CARDIOPROTECTION BY AUTOPHAGY INDUCTION AND METABOLIC REPROGRAMMING” (UNIVERSITE PARIS-SACLAY, priority 2021, published 2024).)
